Assay results reported in patent publication US20080009418A1, “Selective Inhibitors” (Alchemia LTD., priority 2004, published 2008).

Experiments:
[1] = molecular target: T1, Human neurokinin (NK1) (Homo sapiens, UniProt P25103); assay: Radioligand binding, human neurokinin NK1 membranes, filtration, [125I]-Substance P; settings: compound at 10 μM; for A8 radioligand binding, percentage inhibition: [125I]-Substance P
T1 construct: purchased Perkin Elmer Biosignal
Summary of the method: (§1)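 Filtration binding on cloned human receptor membranes (1 Unit/well), [125I]-Substance P for NK1 and [3H]-Diprenorphine for KOP, 1 h at room temperature. Filters PEI-presoaked, washed with cold 50 mM Tris-HCl pH 7.4, counted by scintillation; percent inhibition calculated, reference ligand defining non-specific binding.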

[2] = molecular target: T2, Human μ-opioid (MOP) (Homo sapiens, UniProt P35372); assay: Radioligand binding, human μ-opioid (MOP) membranes, FlashPlate, [3H]-Naloxone; settings: compound at 10 μM; for A7 radioligand binding, percentage inhibition: [3H]-Naloxone
T2 construct: purchased Perkin Elmer Biosignal
T2 sequence (P35372 whole entry): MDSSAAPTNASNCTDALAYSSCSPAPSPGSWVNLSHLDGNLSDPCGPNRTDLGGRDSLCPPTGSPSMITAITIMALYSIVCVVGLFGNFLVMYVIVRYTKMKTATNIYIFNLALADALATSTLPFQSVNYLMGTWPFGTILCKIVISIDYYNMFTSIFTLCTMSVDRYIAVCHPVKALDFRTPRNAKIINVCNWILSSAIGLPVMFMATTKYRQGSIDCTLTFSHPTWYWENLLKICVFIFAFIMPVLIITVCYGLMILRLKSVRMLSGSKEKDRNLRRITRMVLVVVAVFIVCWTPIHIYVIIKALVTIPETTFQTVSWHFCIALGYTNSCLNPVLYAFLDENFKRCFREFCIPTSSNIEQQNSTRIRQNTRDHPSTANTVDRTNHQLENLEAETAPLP
Summary of the method: (§2)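 Cloned human receptor membranes were coated onto FlashPlate wells and incubated with radioligand and compound (added from a 0.5 mM DMSO daughter plate) for 1 hour at room temperature in the dark. Scintillation counting gave percent inhibition, with DMSO defining total and reference ligand defining non-specific binding.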

[3] = molecular target: T3, Human melanin-concentrating hormone (MCH1) (Homo sapiens, UniProt Q99705); assay: Radioligand binding, human melanin-concentrating hormone MCH1 membranes, FlashPlate, [125I]-S36057; settings: compound at 10 μM; for A6 radioligand binding, percentage inhibition: [125I]-S36057
T3 construct: purchased Perkin Elmer Biosignal
T3 sequence (Q99705 whole entry): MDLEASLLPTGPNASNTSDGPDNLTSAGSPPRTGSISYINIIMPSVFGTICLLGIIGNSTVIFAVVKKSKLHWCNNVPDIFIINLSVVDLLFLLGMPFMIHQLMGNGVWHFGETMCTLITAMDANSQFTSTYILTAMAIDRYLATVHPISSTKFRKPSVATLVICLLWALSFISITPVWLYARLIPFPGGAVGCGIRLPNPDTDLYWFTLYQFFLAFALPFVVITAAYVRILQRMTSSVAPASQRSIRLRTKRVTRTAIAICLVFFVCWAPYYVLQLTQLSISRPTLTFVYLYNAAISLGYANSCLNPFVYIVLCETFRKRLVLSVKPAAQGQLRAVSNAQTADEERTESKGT
Summary of the method: as §2

[4] = molecular target: T4, Human opioid (ORL1) (Homo sapiens, UniProt P41146); assay: Radioligand binding, human opioid ORL1 membranes, FlashPlate, [125I]-Nociceptin; settings: compound at 10 μM; for A10 radioligand binding, percentage inhibition: [125I]-Nociceptin
T4 construct: purchased Perkin Elmer Biosignal
T4 sequence (P41146 whole entry): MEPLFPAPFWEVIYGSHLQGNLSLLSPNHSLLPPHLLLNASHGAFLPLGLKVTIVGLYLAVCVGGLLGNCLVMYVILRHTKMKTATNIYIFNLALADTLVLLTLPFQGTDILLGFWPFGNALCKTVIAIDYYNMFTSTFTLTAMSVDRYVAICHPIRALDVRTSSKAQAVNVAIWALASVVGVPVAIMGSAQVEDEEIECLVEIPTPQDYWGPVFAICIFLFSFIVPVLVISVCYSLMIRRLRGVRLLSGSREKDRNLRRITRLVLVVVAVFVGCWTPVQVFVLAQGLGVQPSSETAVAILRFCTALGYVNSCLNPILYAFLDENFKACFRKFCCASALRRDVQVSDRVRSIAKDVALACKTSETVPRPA
Summary of the method: as §2

[5] = molecular target: T5, Human Melanocortin (MC4) (Homo sapiens, UniProt P32245); assay: Radioligand binding, human melanocortin MC4 membranes, FlashPlate, [125I]-NDP-αMSH; settings: compound at 10 μM; for A4 radioligand binding, percentage inhibition: [125I]-NDP-αMSH
T5 construct: purchased Perkin Elmer Biosignal
T5 sequence (P32245 whole entry): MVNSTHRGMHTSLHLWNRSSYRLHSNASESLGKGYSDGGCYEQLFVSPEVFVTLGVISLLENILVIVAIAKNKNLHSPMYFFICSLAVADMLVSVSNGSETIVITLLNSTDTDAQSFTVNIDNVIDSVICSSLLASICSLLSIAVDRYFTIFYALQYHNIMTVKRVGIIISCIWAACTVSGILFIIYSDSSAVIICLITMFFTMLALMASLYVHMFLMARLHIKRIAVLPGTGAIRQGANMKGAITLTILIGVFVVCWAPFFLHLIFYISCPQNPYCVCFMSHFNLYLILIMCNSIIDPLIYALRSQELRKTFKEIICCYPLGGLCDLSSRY
Summary of the method: as §2

[6] = molecular target: T6, Mouse urotensin (mUR2) (Mus musculus, UniProt Q8VIH9); assay: Radioligand binding, mouse urotensin mUR2 membranes, FlashPlate, [125I]-Urotensin II; settings: compound at 10 μM; for A11 radioligand binding, percentage inhibition: [125I]-Urotensin II
T6 construct: purchased Perkin Elmer Biosignal
T6 sequence (Q8VIH9 1-385): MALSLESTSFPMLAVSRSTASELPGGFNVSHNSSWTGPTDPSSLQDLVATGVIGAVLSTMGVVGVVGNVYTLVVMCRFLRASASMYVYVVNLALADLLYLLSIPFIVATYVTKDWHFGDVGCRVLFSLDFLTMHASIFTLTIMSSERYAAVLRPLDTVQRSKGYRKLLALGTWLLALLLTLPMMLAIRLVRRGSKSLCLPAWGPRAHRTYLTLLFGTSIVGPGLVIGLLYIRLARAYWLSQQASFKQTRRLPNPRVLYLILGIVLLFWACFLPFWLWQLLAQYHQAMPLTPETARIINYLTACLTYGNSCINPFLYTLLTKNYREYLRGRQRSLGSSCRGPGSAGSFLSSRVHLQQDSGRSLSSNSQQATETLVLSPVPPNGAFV
Summary of the method: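 Cloned mouse urotensin (mUR2) receptor membranes from Perkin Elmer Biosignal were immobilized in FlashPlate microplates using a proprietary coating. Each well got 19.5 μl buffer, then 0.5 μl of DMSO, reference ligand, or compound. Adding 5 μl of [125I]-Urotensin II, diluted to 5× final concentration in binding buffer, started binding. Plates were sealed with TopSeal-A and incubated 1 hour at room temperature in the dark. Wells were counted for 30 seconds each on a TopCount after a 60-second delay, and percentage inhibition was calculated.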

[7] = molecular target: T7, Human neuropeptide Y (NPY-Y1) (Homo sapiens, UniProt P25929); assay: Radioligand binding, human neuropeptide Y NPY-Y1 membranes, FlashPlate, [125I]-PYY; settings: compound at 10 μM; for A9 radioligand binding, percentage inhibition: [125I]-PYY
T7 construct: purchased Perkin Elmer Biosignal
T7 sequence (P25929 1-384): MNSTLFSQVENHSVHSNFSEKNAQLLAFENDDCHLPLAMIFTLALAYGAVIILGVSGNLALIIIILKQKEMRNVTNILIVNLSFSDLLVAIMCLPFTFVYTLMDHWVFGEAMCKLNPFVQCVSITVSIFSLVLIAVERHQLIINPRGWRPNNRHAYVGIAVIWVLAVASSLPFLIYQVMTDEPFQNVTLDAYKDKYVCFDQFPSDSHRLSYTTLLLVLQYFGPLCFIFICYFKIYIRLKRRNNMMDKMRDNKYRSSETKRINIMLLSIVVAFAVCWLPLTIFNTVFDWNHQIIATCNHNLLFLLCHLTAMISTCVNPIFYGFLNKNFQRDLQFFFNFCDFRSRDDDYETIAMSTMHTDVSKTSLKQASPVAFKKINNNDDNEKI
Summary of the method: as §2

[8] = molecular target: T8, Human melanocortin (MC5) (Homo sapiens, UniProt P33032); assay: Radioligand binding, human melanocortin MC5 membranes, FlashPlate, [125I]-NDP-αMSH; settings: compound at 10 μM; for A5 radioligand binding, percentage inhibition: [125I]-NDP-αMSH
T8 construct: purchased Perkin Elmer Biosignal
T8 sequence (P33032 whole entry): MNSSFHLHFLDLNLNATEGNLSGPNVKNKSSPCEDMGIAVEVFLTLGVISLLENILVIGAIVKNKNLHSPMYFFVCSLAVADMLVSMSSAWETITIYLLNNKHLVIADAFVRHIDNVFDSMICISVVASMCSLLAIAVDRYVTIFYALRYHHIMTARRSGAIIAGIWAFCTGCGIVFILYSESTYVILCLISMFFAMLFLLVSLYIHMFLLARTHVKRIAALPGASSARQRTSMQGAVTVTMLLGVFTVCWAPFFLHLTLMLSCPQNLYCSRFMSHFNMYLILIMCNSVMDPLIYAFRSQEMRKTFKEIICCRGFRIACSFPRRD
Summary of the method: as §2

[9] = molecular target: T9, Human δ-opioid (DOP) (Homo sapiens, UniProt P41143); assay: Radioligand binding, human δ-opioid (DOP) membranes, FlashPlate, [3H]-Bremazocine; settings: compound at 10 μM; for A1 radioligand binding, percentage inhibition: [3H]-Bremazocine
T9 construct: purchased Perkin Elmer Biosignal
T9 sequence (P41143 whole entry): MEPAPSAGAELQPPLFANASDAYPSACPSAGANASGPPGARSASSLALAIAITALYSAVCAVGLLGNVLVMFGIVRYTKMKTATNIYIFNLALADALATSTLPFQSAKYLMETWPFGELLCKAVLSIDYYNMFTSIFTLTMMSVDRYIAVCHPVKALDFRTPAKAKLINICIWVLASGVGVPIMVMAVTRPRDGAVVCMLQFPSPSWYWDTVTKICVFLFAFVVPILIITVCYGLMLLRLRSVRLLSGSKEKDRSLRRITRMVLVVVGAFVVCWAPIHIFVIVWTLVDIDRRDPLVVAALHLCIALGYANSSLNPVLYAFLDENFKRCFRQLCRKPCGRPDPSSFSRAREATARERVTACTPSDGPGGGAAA
Summary of the method: as §2

[10] = molecular target: T10, Human κ-Opioid (KOP) (Homo sapiens, UniProt P41145); assay: Radioligand binding, human κ-opioid (KOP) membranes, filtration, [3H]-Diprenorphine; settings: compound at 10 μM; for A2 radioligand binding, percentage inhibition: [3H]-Diprenorphine
T10 construct: purchased Perkin Elmer Biosignal
T10 sequence (P41145 whole entry): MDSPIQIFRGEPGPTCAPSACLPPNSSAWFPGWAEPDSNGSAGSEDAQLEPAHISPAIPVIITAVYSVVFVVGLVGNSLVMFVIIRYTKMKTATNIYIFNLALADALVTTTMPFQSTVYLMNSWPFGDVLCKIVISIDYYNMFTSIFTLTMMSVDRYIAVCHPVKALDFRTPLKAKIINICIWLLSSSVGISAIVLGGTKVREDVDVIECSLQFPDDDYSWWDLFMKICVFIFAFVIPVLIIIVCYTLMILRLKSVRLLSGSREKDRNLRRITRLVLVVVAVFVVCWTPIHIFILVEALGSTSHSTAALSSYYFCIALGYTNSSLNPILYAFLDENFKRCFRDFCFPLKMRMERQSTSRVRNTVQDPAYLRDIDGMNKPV
Summary of the method: as §1

[11] = molecular target: T11, Human Melanocortin (MC3) (Homo sapiens, UniProt P41968); assay: Radioligand binding, human melanocortin MC3 membranes, FlashPlate, [125I]-NDP-αMSH; settings: compound at 10 μM; for A3 radioligand binding, percentage inhibition: [125I]-NDP-αMSH
T11 construct: purchased Perkin Elmer Biosignal
T11 sequence (P41968 whole entry): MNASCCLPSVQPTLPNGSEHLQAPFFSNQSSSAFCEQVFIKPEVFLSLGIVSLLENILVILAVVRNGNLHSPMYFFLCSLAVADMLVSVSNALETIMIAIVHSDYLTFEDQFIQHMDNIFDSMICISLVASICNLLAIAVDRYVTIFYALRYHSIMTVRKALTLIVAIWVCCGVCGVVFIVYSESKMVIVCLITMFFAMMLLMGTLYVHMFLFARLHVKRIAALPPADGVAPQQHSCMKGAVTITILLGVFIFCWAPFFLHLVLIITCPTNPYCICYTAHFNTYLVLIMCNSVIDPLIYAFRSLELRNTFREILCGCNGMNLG
Summary of the method: as §2

T1 sequence (P25103 whole entry): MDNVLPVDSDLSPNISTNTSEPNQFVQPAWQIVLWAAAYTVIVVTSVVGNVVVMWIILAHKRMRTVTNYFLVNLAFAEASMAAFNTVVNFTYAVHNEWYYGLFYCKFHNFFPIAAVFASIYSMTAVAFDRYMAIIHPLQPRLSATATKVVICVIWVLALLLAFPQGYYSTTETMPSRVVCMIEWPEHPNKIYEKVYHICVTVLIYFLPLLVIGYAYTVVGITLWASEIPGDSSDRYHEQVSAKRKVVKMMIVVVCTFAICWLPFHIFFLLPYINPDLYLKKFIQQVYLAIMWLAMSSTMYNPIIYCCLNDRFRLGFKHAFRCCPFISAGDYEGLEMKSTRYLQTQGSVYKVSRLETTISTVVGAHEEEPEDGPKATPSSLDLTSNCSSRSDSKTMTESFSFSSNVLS

Compound | A8 radioligand binding, percentage inhibition [1] | A7 radioligand binding, percentage inhibition [2] | A6 radioligand binding, percentage inhibition [3] | A10 radioligand binding, percentage inhibition [4] | A4 radioligand binding, percentage inhibition [5] | A11 radioligand binding, percentage inhibition [6] | A9 radioligand binding, percentage inhibition [7] | A5 radioligand binding, percentage inhibition [8] | A1 radioligand binding, percentage inhibition [9] | A2 radioligand binding, percentage inhibition [10] | A3 radioligand binding, percentage inhibition [11] | other results
CO[C@H]1[C@H](O)[C@@H](COCc2ccc(Cl)cc2)OC(OCc2ccccc2)[C@@H]1NC(=O)CCNC(=N)N (stereo partly shown) [compound 91] |  |  |  |  |  |  |  |  |  |  |  | A8 radioligand binding inhibition ([1]; human neurokinin NK1 membranes): + (“+” indicates greater than 50% inhibition at 10 μM); A7 radioligand binding inhibition ([2]; human μ-opioid (MOP) membranes): − (“−” indicates less than 50% inhibition at 10 μM); A6 radioligand binding inhibition ([3]; human MCH1 membranes): − (“−” indicates less than 50% inhibition at 10 μM); A10 radioligand binding inhibition ([4]; human ORL1 membranes): − (“−” indicates less than 50% inhibition at 10 μM); A4 radioligand binding inhibition ([5]; human melanocortin MC4 membranes): − (“−” indicates less than 50% inhibition at 10 μM); A11 radioligand binding inhibition ([6]; mouse urotensin mUR2 membranes): − (“−” indicates less than 50% inhibition at 10 μM); A9 radioligand binding inhibition ([7]; human NPY-Y1 membranes): − (“−” indicates less than 50% inhibition at 10 μM); A5 radioligand binding inhibition ([8]; human melanocortin MC5 membranes): − (“−” indicates less than 50% inhibition at 10 μM); A1 radioligand binding inhibition ([9]; human δ-opioid (DOP) membranes): − (“−” indicates less than 50% inhibition at 10 μM); A2 radioligand binding inhibition ([10]; human κ-opioid (KOP) membranes): − (“−” indicates less than 50% inhibition at 10 μM); A3 radioligand binding inhibition ([11]; human melanocortin MC3 membranes): − (“−” indicates less than 50% inhibition at 10 μM)
CO[C@H]1[C@H](O)[C@@H](COCc2ccc(Cl)cc2)OC(OCc2ccccc2)[C@@H]1NC(=O)CCCN (stereo partly shown) [compound 92] | + (“+” indicates greater than 50% inhibition at 10 μM) | − (“−” indicates less than 50% inhibition at 10 μM) | − (“−” indicates less than 50% inhibition at 10 μM) | − (“−” indicates less than 50% inhibition at 10 μM) | − (“−” indicates less than 50% inhibition at 10 μM) | − (“−” indicates less than 50% inhibition at 10 μM) | − (“−” indicates less than 50% inhibition at 10 μM) | − (“−” indicates less than 50% inhibition at 10 μM) | − (“−” indicates less than 50% inhibition at 10 μM) | − (“−” indicates less than 50% inhibition at 10 μM) | − (“−” indicates less than 50% inhibition at 10 μM) | 
CO[C@H]1[C@H](O)[C@@H](COCc2ccc(Cl)cc2)OC(OCc2ccccc2)[C@@H]1NC(=O)CCCNC(=N)N (stereo partly shown) [compound 93] | + (“+” indicates greater than 50% inhibition at 10 μM) | + (“+” indicates greater than 50% inhibition at 10 μM) | − (“−” indicates less than 50% inhibition at 10 μM) | − (“−” indicates less than 50% inhibition at 10 μM) | − (“−” indicates less than 50% inhibition at 10 μM) | − (“−” indicates less than 50% inhibition at 10 μM) | − (“−” indicates less than 50% inhibition at 10 μM) | + (“+” indicates greater than 50% inhibition at 10 μM) | − (“−” indicates less than 50% inhibition at 10 μM) | − (“−” indicates less than 50% inhibition at 10 μM) | − (“−” indicates less than 50% inhibition at 10 μM) | 
CO[C@H]1[C@H](O)[C@@H](COCc2ccc(-c3ccccc3)cc2)OC(OCc2ccc(Cl)cc2)[C@@H]1NC(=O)CCNC(=N)N (stereo partly shown) [compound 94] | + (“+” indicates greater than 50% inhibition at 10 μM) | − (“−” indicates less than 50% inhibition at 10 μM) | + (“+” indicates greater than 50% inhibition at 10 μM) | + (“+” indicates greater than 50% inhibition at 10 μM) | + (“+” indicates greater than 50% inhibition at 10 μM) | − (“−” indicates less than 50% inhibition at 10 μM) | + (“+” indicates greater than 50% inhibition at 10 μM) | + (“+” indicates greater than 50% inhibition at 10 μM) | − (“−” indicates less than 50% inhibition at 10 μM) | − (“−” indicates less than 50% inhibition at 10 μM) | + (“+” indicates greater than 50% inhibition at 10 μM) | 
CO[C@H]1[C@H](O)[C@@H](COCc2ccc(-c3ccccc3)cc2)OC(OCc2ccc(Cl)cc2)[C@@H]1NC(=O)CCCN (stereo partly shown) [compound 95] | + (“+” indicates greater than 50% inhibition at 10 μM) | − (“−” indicates less than 50% inhibition at 10 μM) | + (“+” indicates greater than 50% inhibition at 10 μM) | + (“+” indicates greater than 50% inhibition at 10 μM) | + (“+” indicates greater than 50% inhibition at 10 μM) | − (“−” indicates less than 50% inhibition at 10 μM) | − (“−” indicates less than 50% inhibition at 10 μM) | + (“+” indicates greater than 50% inhibition at 10 μM) | − (“−” indicates less than 50% inhibition at 10 μM) | − (“−” indicates less than 50% inhibition at 10 μM) | − (“−” indicates less than 50% inhibition at 10 μM) | 
